Assay results reported in paper PMC5660193, “The antimalarial activity of the pantothenamide α-PanAm is via inhibition of pantothenate phosphorylation” (Scientific Reports, 2017).
Residue numbers refer to the chain shown, from its start.

Experiments:
Assay type in all cases: biochemical
[1] = target: T1, His6-CAB1 (Saccharomyces cerevisiae, UniProt Q04430); assay: Kinase-Glo luminescent assay; details: 10 µM compound, 100 µM pantothenate, 100 µM ATP, 10 mM MgCl2, pH 7.4, room temperature
T1 sequence (Q04430 1-367): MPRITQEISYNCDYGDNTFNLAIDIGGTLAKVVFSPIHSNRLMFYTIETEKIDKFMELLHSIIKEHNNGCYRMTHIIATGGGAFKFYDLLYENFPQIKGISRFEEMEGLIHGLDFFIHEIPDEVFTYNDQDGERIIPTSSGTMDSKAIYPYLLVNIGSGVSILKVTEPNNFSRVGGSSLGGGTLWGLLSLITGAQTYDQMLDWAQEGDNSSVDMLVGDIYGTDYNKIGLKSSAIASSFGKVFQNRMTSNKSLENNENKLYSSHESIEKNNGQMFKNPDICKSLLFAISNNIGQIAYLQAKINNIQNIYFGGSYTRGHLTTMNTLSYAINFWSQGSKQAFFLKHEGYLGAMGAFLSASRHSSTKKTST

[2] = target: T2, Cab1p (yeast PanK) (Saccharomyces cerevisiae, UniProt Q04430); assay: radioactive pantothenate kinase assay, double reciprocal plots; details: competitive with pantothenate; 2.5 mM ATP, 2.5 mM MgCl2, pH 7.4, 30 °C; enzyme source for Ki not restated (yeast extract as for Km)
T2 construct: gene CAB1; native untagged enzyme in cell-free extract of wild-type yeast
T2 sequence (Q04430 1-367): T1 sequence (Q04430 1-367)

[3] = target: T1, His6-CAB1; assay: radioactive pantothenate kinase assay; details: 50 µM 14C-pantothenate, 2.5 mM ATP, 2.5 mM MgCl2, pH 7.4
[4] = target: T3, His6-CAB1 (Saccharomyces cerevisiae, UniProt Q04430, G351S); assay: radioactive pantothenate kinase assay; details: 50 µM 14C-pantothenate, 2.5 mM ATP, 2.5 mM MgCl2, pH 7.4
T3 sequence (Q04430 1-367 G351S): T1 sequence (Q04430 1-367) with G351S

[5] = target: T1, His6-CAB1; assay: Kinase-Glo ATP depletion and LC-MS of phosphorylated product; details: 10 µM compound, 100 µM ATP, no pantothenate, 10 mM MgCl2, pH 7.4, room temperature

## CSc1cccc(NC(=O)CCc2c(C)nc3c4cccnc4nn3c2C)c1 [NED7, 3-(2,4-dimethylpyrido-[2′,3′:3,4]pyrazolo[1,5-a]pyrimidin-3-yl)-N-(3-(methylthio)phenyl) propanamide]
[1]
  inhibition at 10 μM: resulted in increased luciferase activity in the presence of Cab1

## CC(CNC(=O)[C@H](O)C(C)(C)CO)C(=O)NCCc1ccccc1 (stereo partly drawn) [α-PanAm, (2 R)-2,4-dihydroxy-3,3-dimethyl-N-(2-methyl-3-oxo-3-(phenethylamino)propyl)butanamide]
[2]
  Ki: 10.1 ± 0.85 µM
[3]
  relative enzyme activity: PanK activities of purified His6-CAB1 and His6-cab1^G351S mutant proteins were measured
[4]
  relative enzyme activity: PanK activities of purified His6-CAB1 and His6-cab1^G351S mutant proteins were measured
[5]
  Kinase-Glo ATP depletion and LC-MS of phosphorylated product: detected the mass of phosphorylated α-PanAm (P-α-PanAm) in the presence of active Cab1
